Literature values, collected in patent US20110269740A1, “JAK KINASE MODULATING COMPOUNDS AND METHODS OF USE THEREOF” (Ambit Biosciences Corporation, priority 2008, published 2011).
Like-named read-outs stand apart in the source and are kept apart here.

Key:
[1] = tested on: CML cell lines such as 32Dp210 and K562, as well as mouse Bcr-Abl+32D cells; conditions: CML cell lines 32Dp210, K562, mouse Bcr-Abl+32D
[2] = tested on: BCR-Abl+BaF3 cells which carried the Abl T315I mutation; conditions: imatinib-resistant
[3] = tested on: prostate cancer cell DU145
transplant rejection [4] = conditions: murine heterotopic heart transplant model, orally available
transplant rejection [5] = conditions: non-human primate renal transplant model, orally available

Structure (SMILES) | downstream effect on c-Myc [1] | apoptosis [2] | apoptosis [3] | prevention of transplant rejection (transplant rejection [4]) | prevention of transplant rejection (transplant rejection [5])
N#C/C(=C/c1ccc(O)c(O)c1)C(=O)NCc1ccccc1 [AG490] | reduction of c-Myc | induce apoptosis | induced apoptosis |  | 
C[C@@H]1CCN(C(=O)CC#N)C[C@@H]1N(C)c1ncnc2[nH]ccc12 [CP-690550] |  |  |  | efficacy in preventing transplant rejection | efficacy in preventing transplant rejection
